Source: paper PMC8067766 (International Journal of Molecular Sciences, 2021)
Where a SMILES comes first, the peptide text is derived from it.

Tests used:
[1] = Peptide stability in human plasma (TCA assay); format: in vitro ADME; conditions: human plasma (EDTA), 37 °C, 300 rpm, TCA 3% precipitation, RP-HPLC UV 223 nm, at least triplicates
Protocol: Peptide stability tests were performed according to a TCA stability assay based on the method used by Nguyen et al.. Peptides were dissolved in water, mixed with human plasma* to a final concentration of 1.0 mg/mL, and incubated at 37 °C with agitation (300 rpm, Thermomixer, Eppendorf AG, Hamburg, Germany). After 0, 1, 2, 3, 6 and 24 h, 80 μL of the solution was taken and mixed with 15% TCA to obtain a final concentration of 3% (v/v). The samples were incubated in ice for 10 min and centrifuged for 10 min (12,000 rpm, Microfuge 16, Beckman Coulter, Brea, CA, USA). Supernatants were analyzed by RP-HPLC on column using a linear gradient of acetonitrile (5–100% over 15 min) with detection at 223 nm. Peptides were quantified by their peak areas relative to the initial peak areas (0 min). All stability tests were performed at least in triplicates. As control samples peptides dissolved only in water under the same conditions were used. To additionally assess the changes in the incubated samples (peptide degradation) mass spectrometry analysis was used. LC-MS experiments were performed using ESI-IT-TOF (Shimadzu, Kyoto, Japan).
* Blood was collected from healthy anonymous donors and EDTA was then used as an anticoagulant. The procedure was approved by the Independent Bioethics Commission for Research of the Medical University of Gdańsk (NKBBN/387/2014).

[2] = Thioflavin T fluorescence assay; format: physicochemical; conditions: 1.0 mg/mL in PBS pH 7.4, 37 °C, orbital shaking; ThT excitation 420 nm, emission 482 nm
Protocol: (§1) All peptides were dissolved in Eppendorf Low Retention Tubes in 1.0 mL of PBS pH 7.4. The concentration of the solutions of peptides was 1.0 mg/mL. The peptides were incubated at 37 °C with constant orbital shaking. Aliquots for the evaluation of the fibrillization process were taken before incubation and after 1, 2, 3, 6, 14, and 21 days or only after 7 days, depending on the experiments.
Ten microliters of peptide solution incubated under fibrillization conditions (see Fibril preparation) were mixed with 10 µL of 1.5 mM ThT in water and 90 µL of PBS pH 7.4. The fluorescence was measured on a Tecan Infinite 200Pro (Tecan Group Ltd., Männedorf, Switzerland) spectrofluorometer in 96-well plates (Costar Black®), with excitation wavelength set at 420 nm and emission in the range of 455 to 600 nm.

[3] = Circular dichroism over incubation; format: physicochemical; conditions: 1.0 mg/mL in PBS pH 7.4, 37 °C with agitation, up to 14 days; centrifuged clear solution, far-UV 195-250 nm
Protocol: Circular dichroism spectra were recorded on a Jasco J-815 spectropolarimeter (Jasco, Victoria, BC, Canada). Far-UV spectra (195–250 nm) were registered for all peptides dissolved in PBS pH 7.4 at a concentration of 1.0 mg/mL and incubated at 37 °C with agitation. Spectra were recorded before and after 1,2, 3, 7, 10 and 14 days of incubation. All spectra were corrected for the buffer signal. The CD spectra were recorded three times, using a 0.2 mm cell.

[4] = target: T1, human neutrophil elastase (Homo sapiens, UniProt P08246); experiment: Incubation with neutrophil elastase (release of active sequence); format: in vitro ADME; conditions: non-fibrillated peptide 1.0 mM, 0.1 M Tris HCl, 500 mM NaCl, 0.05% Triton X-100, 20 mM CaCl2, pH 7.5; enzyme 150 nM; 30 min, 37 °C; RP-UHPLC (PDA) and LC-MS
T1 construct: purchased Sigma Aldrich
T1 sequence (P08246 30-267): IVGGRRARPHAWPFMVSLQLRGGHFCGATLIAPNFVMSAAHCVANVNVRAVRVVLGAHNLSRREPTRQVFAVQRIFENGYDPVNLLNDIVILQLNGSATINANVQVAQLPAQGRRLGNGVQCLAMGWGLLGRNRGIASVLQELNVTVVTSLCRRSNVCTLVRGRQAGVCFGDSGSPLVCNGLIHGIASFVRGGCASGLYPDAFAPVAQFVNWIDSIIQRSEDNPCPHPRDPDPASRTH
Protocol: An enzymatic stability study was performed using the human neutrophil elastase enzyme (Sigma Aldrich, St. Louis, MO, USA). The peptides were dissolved in a buffer (with composition: 0.1 M Tris HCl, 500 mM NaCl, 0.05% Triton X-100, 20 mM CaCl2, pH 7.5), to a final concentration 1.0 mM. The fibrils formed in the aggregation process were dissolved in PBS at pH 7.4 to a concentration of 1 mg/mL. The enzyme was added to the peptide/fibril solution to a concentration of 150 nM and incubated for 30 min (peptides) or 60 min (fibrils), at 37 °C, with agitation. A 10% aqueous TFA solution was added to the reaction mixture to stop the digestion. The progress of the reaction was monitored by RP-UHPLC with a PDA (Photo Diode Array) detector on a Kinetex C8 column (2.6 μm, 100 Å 2.6 × 100 mm, Phenomenex, Torrance, CA, USA), at a gradient of 0–50% B for 15 min, and by LC-MS.

[5] = Transmission electron microscopy of fibrils; format: physicochemical; conditions: 1.0 mg/mL in PBS pH 7.4, TEM, uranyl acetate stain
Protocol: as §1
Peptide samples (5 µL) were applied on a glow-discharged carbon-coated copper grid (400 mesh). After 1 min of adsorption, excess liquid was removed using filter paper, and the samples were stained with 2% (v/v) aqueous uranyl acetate. The samples were examined with a TECNAI SPIRIT BIO TWIN FEI (FEI Company, Hillsboro, OR, USA) at 120 kV, with nominal magnifications between 11,500 and 39,000. The assay was performed for samples before (after dissolution) and after 3 days of incubation.

HaCaT keratinocytes = experiment: XTT proliferation assay, keratinocytes; format: cell-based, human; conditions: for inhibition of proliferation (XTT), in words: up to 25 µg/mL
Protocol: (§2) Immortalized human HaCaT [69, 70] keratinocytes (DKFZ, Heidelberg, Germany) and the human dermal fibroblast cell line 46BR.1N (ECACC, Sigma Aldrich, St. Louis, MO, USA) were used in the study. Cells were routinely grown in culture flasks (growth surface area 25 cm^2) in Dulbecco’s modified Eagle medium (DMEM, Sigma Aldrich, St. Louis, MO, USA), with 4500 mg/L of glucose, 584 mg/L of L-glutamine, sodium pyruvate, and sodium bicarbonate, supplemented with 10% FBS and 100 units/mL of penicillin and 100 μg/mL of streptomycin (Sigma Aldrich, St. Louis, MO, USA), under a humidified atmosphere with 5% CO2 at 37 °C. Medium was changed every 2–3 days.
(§3) Lactate dehydrogenase (LDH) activity in cell culture supernatants (Takara, Japan, cat. No. MK401) was measured to determine the cytotoxicity of the tested compounds, and the XTT assay was used to evaluate their effect on cell proliferation. Both tests were performed as previously described according to manufacturers’ instructions. Briefly, cells were seeded into 96-well plates, at a density of 5000 cells per well, in DMEM supplemented with 10% FBS. After 24 h the medium was exchanged for serum-free DMEM containing appropriate concentrations of the tested compounds. Supernatants for LDH analysis were collected after 48 h of incubation. The XTT assay was performed after 48 and 72 h of incubation.
(§4) For the analysis of the effect of the peptide fibrils on skin cells, the experiment was performed as described, but the cells were stimulated with 10 µL of the fibrils (50 µg/mL) and incubated for 48 h, when the LDH and XTT assay were then performed.

46BR.1N fibroblasts [6] = experiment: XTT proliferation assay, fibroblasts; format: cell-based, human; conditions: for inhibition of proliferation (XTT), in words: up to 25 µg/mL
Protocol: as §2, §3, §4

46BR.1N fibroblasts [7] = experiment: LDH cytotoxicity assay, fibroblasts; format: cell-based, human; conditions: non-fibrillated peptide 25 µg/mL, 48 h, serum-free DMEM; n = 16
Protocol: as §2
Lactate dehydrogenase (LDH) activity in cell culture supernatants (Takara, Japan, cat. No. MK401) was measured to determine the cytotoxicity of the tested compounds, and the XTT assay was used to evaluate their effect on cell proliferation. Both tests were performed as previously described according to manufacturers’ instructions. Briefly, cells were seeded into 96-well plates, at a density of 5000 cells per well, in DMEM supplemented with 10% FBS. After 24 h the medium was exchanged for serum-free DMEM containing appropriate concentrations of the tested compounds. Supernatants for LDH analysis were collected after 48 h of incubation. The XTT assay was performed after 48 and 72 h of incubation. […]

[8] = tested on: human neutrophil elastase (Sigma Aldrich), 150 nM; experiment: human neutrophil elastase in buffer (0.1 M Tris HCl, 500 mM NaCl, 0.05% Triton X-100, 20 mM CaCl2, pH 7.5); non-fibrillated peptides; conditions: 37 °C, up to 30 min
human plasma = conditions: 37 °C, up to 24 h
[9] = non-fibrillated peptide, 48 and 72 h, serum-free DMEM, n = 16
[10] = non-fibrillated peptide, 48 and 72 h

CC[C@H](C)[C@H](NC(=O)CNC(=O)[C@H](C)NC(=O)[C@H](CCC(N)=O)NC(=O)CNC(=O)CNC(=O)CNC(=O)[C@@H](NC(=O)[C@@H]1CCCN1C(=O)[C@H](C)NC(=O)[C@H](C)NC(=O)CNC(=O)CNC(=O)CNC(=O)[C@H](CCCNC(=N)N)NC(=O)[C@H](Cc1ccc(O)cc1)NC(=O)[C@@H](NC(=O)[C@H](CCCCN)NC(=O)[C@H](CC(=O)O)NC(=O)[C@H](CCCNC(=N)N)NC(C)=O)C(C)C)C(C)C)C(=O)N[C@H](C(=O)N[C@H](C(N)=O)C(C)C)C(C)C [FC-IM] (Ac-RDKVYRGGGAAPVGGGQAGIVV-NH2)
metabolised at 24 h, 1 mg/mL ([1]; peak area relative to 0 min, read-out: peptide loss in human plasma relative to the initial concentration): 7% | time course of ThT fluorescence increase (fibrillization) [2]: required at least three days of incubation | secondary structure by CD [3]: disordered structure | Degradation Yes/No by human neutrophil elastase [4]: Yes | fibril thickness (TEM) [5]: 10–12 nm | increase in proliferation by fibrils compared to control (XTT) (HaCaT keratinocytes; fibrillated form, 10 µL of fibrils (50 µg/mL), 48 h, not statistically significant): did not stimulate proliferation of either tested cell line | increase in proliferation compared to the control (XTT) (HaCaT keratinocytes; [9]): 20–30% | inhibition of proliferation (XTT), in words (HaCaT keratinocytes; [10]): did not decrease the proliferation of HaCaT keratinocytes | increase in proliferation by fibrils compared to control (XTT) (46BR.1N fibroblasts [6]; fibrillated form, 10 µL of fibrils (50 µg/mL), 48 h, three independent experiments): did not stimulate proliferation of either tested cell line | increase in proliferation compared to the control (XTT) (46BR.1N fibroblasts [6]; [9]): 20–30% | inhibition of proliferation (XTT), in words (46BR.1N fibroblasts [6]; [10]): Slight inhibition of the proliferation of fibroblasts was seen at a concentration of 25 µg/mL after 72 h incubation

CC[C@H](C)[C@H](NC(=O)CNC(=O)[C@H](C)NC(=O)[C@@H](N)CCC(N)=O)C(=O)N[C@H](C(=O)N[C@H](C(N)=O)C(C)C)C(C)C [FC] (H-QAGIVV-NH2)
cytotoxicity (LDH release) (46BR.1N fibroblasts [7]): about 5% | remaining at 24 h, 1 mg/mL ([1]; rapid precipitation of peptide noted, read-out: peptide remained in solution in human plasma): 11% | inhibition of proliferation (XTT), in words (HaCaT keratinocytes; [10]): Inhibition of the proliferation of both cell lines was not observed | inhibition of proliferation (XTT), in words (46BR.1N fibroblasts [6]; [10]): Inhibition of the proliferation of both cell lines was not observed

Ac-GHK-GGG-AAPV-GGG-QAGIVV-NH2
cleaved bond [8]: V-G, major, 30 min

Ac-K GHK-GGG-AAPV-GGG-QAGIVV-NH2
cleaved bond [8]: V-G, major, 30 min

Ac-RDKVYR GGG-AAPV-GGG-QAGIVV-NH2
not cleaved (human plasma): 7% peptide loss after 24 h | cleaved bond [8]: V-G, major, 30 min | fragment found [8]: Ac-RDKVYRGGGAAPVG-COOH
